Laboratory results published in ChEMBL document CHEMBL1777722, “Design and synthesis of 5,6-fused heterocyclic amides as Raf kinase inhibitors” (Bioorg Med Chem Lett, 2011).
The source made the active and inactive calls. The rule behind the calls is not given here.

Biological target: Macrophage colony-stimulating factor 1 receptor (Homo sapiens) (UniProt P07333)
Assay: Inhibition of CSFR1
Settings: not given

In the case of `CNC(=O)c1cc(Oc2ccc3oc(Nc4cccc(C(C)C)c4)nc3c2)ccn1`, the inhibition is reported as “Active”.
With `CNC(=O)c1cc(Oc2ccc3sc(Nc4cccc(C(C)(C)C)c4)nc3c2)ccn1` the inhibition was “Active”.

Biological target: RAF proto-oncogene serine/threonine-protein kinase (Homo sapiens, UniProt P04049)
Sequence (P04049 whole entry): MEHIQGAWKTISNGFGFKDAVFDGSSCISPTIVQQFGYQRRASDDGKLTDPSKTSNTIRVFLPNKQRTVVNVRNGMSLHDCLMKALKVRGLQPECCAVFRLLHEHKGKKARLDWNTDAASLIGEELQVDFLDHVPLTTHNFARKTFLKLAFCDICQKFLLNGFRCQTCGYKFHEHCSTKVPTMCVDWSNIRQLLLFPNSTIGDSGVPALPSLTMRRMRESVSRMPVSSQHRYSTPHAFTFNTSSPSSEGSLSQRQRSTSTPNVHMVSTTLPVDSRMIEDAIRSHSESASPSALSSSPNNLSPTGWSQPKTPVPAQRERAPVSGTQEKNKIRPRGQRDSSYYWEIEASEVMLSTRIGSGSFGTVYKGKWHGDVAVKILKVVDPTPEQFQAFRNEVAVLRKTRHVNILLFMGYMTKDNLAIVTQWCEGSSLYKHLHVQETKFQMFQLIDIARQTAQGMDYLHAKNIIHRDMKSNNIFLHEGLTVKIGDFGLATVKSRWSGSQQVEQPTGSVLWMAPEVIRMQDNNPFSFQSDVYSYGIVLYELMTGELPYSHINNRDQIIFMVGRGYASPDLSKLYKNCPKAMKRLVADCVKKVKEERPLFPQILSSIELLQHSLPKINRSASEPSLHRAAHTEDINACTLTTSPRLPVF
Assay: Inhibition of c-Raf assessed as phosphorylation of MEK1/2 by ELISA
Settings: not given

Point of comparison: `CNC(=O)c1cc(Oc2ccc3oc(Nc4ccc(C(C)C)cc4)nc3c2)ccn1`, IC50 1 nM. Against it:
- CC(C)c1cccc(Nc2nc3cc(Oc4ccnc(C(N)=O)c4)ccc3o2)c1 — 4-fold higher, 4 nM
- CCc1ccccc1Nc1nc2cc(Oc3ccnc(C(=O)NC)c3)ccc2o1 — 110-fold higher, 110 nM
- CNC(=O)c1cc(Oc2ccc3oc(Nc4ccc(Cl)cc4)nc3c2)ccn1 — 19-fold higher, 19 nM
- CNC(=O)c1cc(Oc2ccc3oc(Nc4cccc(C(C)C)c4)nc3c2)ccn1 — 3-fold higher, 3 nM
- CNC(=O)c1cc(Oc2ccc3oc(Nc4cccc(C(C)(C)C)c4)nc3c2)ccn1 — the same, 1 nM
- O=C(NCCN1CCOCC1)c1cc(Oc2ccc3sc(Nc4ccc(Br)cc4)nc3c2)ccn1 — 41-fold higher, 41 nM
- CNC(=O)c1cc(Oc2ccc3oc(Nc4ccccc4Cl)nc3c2)ccn1 — 120-fold higher, 120 nM
- CCN1CCN(c2ccc(Nc3nc4cc(Oc5ccnc(C(=O)NC)c5)ccc4o3)cc2)CC1 — 7300-fold higher, 7300 nM
- CNC(=O)c1cc(Oc2ccc3oc(Nc4ccccc4F)nc3c2)ccn1 — 200-fold higher, 200 nM
- CCc1ccc(Nc2nc3cc(Oc4ccnc(C(=O)NC)c4)ccc3o2)cc1 — the same, 1 nM
- CNC(=O)c1cc(Oc2ccc3sc(Nc4ccc(Cl)cc4)nc3c2)ccn1 — 4-fold higher, 4 nM
- CNC(=O)c1cc(Oc2ccc3oc(Nc4ccc(Oc5ccccc5)cc4)nc3c2)ccn1 — 53-fold higher, 53 nM
- CNC(=O)c1cc(Oc2ccc3sc(Nc4ccc(C)cc4)nc3c2)ccn1 — 7-fold higher, 7 nM
- CNC(=O)c1cc(Oc2ccc3sc(Nc4ccc(Br)cc4)nc3c2)ccn1 — 2-fold higher, 2 nM
- CCCCc1ccc(Nc2nc3cc(Oc4ccnc(C(=O)NC)c4)ccc3s2)cc1 — 9-fold higher, 9 nM
- CNC(=O)c1cc(Oc2ccc3oc(Nc4ccc(N(C)C)cc4)nc3c2)ccn1 — 12-fold higher, 12 nM
- CNC(=O)c1cc(Oc2ccc3sc(Nc4ccc(OC(F)(F)F)cc4)nc3c2)ccn1 — 4-fold higher, 4 nM
- CC(C)(C)c1cccc(Nc2nc3cc(Oc4ccnc(C(N)=O)c4)ccc3s2)c1 — the same, 1 nM
- CNC(=O)c1cc(Oc2ccc3oc(Nc4ccc(OC(F)(F)F)cc4)nc3c2)ccn1 — 2-fold higher, 2 nM
- CNC(=O)c1cc(Oc2ccc3oc(Nc4ccc(Br)cc4)nc3c2)ccn1 — 3-fold higher, 3 nM
- CNC(=O)c1cc(Oc2ccc3sc(Nc4cccc(C(C)(C)C)c4)nc3c2)ccn1 — the same, 1 nM
- CC(C)c1cccc(Nc2nc3cc(Oc4ccnc(C(=O)NCCN5CCOCC5)c4)ccc3o2)c1 — 140-fold higher, 140 nM
- CNC(=O)c1cc(Oc2ccc3sc(Nc4ccc(C(C)C)cc4)nc3c2)ccn1 — 3-fold higher, 3 nM
- CNC(=O)c1cc(Oc2ccc3oc(Nc4cccc(C(F)(F)F)c4)nc3c2)ccn1 — 27-fold higher, 27 nM
- CCCCc1ccc(Nc2nc3cc(Oc4ccnc(C(=O)NC)c4)ccc3o2)cc1 — 2-fold higher, 2 nM

Biological target: T1, Serine/threonine-protein kinase B-raf (Homo sapiens, UniProt P15056, V600E)
T1 sequence (P15056 2-766 V600E limits assumed): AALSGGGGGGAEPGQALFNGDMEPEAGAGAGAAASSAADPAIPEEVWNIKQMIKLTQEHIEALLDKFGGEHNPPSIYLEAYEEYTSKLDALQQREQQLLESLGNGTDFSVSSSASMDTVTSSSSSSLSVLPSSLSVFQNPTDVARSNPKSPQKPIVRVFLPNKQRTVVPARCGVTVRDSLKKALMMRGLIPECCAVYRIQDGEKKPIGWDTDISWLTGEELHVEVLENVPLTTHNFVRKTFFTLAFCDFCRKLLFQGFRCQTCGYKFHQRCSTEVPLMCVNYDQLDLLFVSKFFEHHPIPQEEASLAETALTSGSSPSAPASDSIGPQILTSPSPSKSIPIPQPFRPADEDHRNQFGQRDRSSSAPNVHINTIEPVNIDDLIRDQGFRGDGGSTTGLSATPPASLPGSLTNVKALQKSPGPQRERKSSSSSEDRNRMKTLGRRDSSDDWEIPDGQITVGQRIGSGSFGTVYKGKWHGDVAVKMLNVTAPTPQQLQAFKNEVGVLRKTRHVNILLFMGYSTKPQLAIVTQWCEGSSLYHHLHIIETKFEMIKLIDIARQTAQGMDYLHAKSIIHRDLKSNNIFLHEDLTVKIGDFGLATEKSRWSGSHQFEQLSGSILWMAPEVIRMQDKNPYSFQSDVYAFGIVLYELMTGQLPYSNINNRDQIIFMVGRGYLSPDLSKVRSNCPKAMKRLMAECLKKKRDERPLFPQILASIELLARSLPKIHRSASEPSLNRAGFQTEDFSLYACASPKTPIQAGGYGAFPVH
Assay: Inhibition of B-Raf V599E mutant assessed as phosphorylation of MEK1/2 by ELISA
Settings: not given

Point of comparison: `CNC(=O)c1cc(Oc2ccc3sc(Nc4ccc(C)cc4)nc3c2)ccn1`, IC50 26 nM. Against it:
- CC(C)c1cccc(Nc2nc3cc(Oc4ccnc(C(N)=O)c4)ccc3o2)c1 — 6.5-fold lower, 4 nM
- CCc1ccccc1Nc1nc2cc(Oc3ccnc(C(=O)NC)c3)ccc2o1 — 13-fold higher, 340 nM
- CNC(=O)c1cc(Oc2ccc3oc(Nc4ccc(Cl)cc4)nc3c2)ccn1 — within 1.5-fold, 21 nM
- CNC(=O)c1cc(Oc2ccc3oc(Nc4cccc(C(C)(C)C)c4)nc3c2)ccn1 — 4.3-fold lower, 6 nM
- O=C(NCCN1CCOCC1)c1cc(Oc2ccc3sc(Nc4ccc(Br)cc4)nc3c2)ccn1 — 9.2-fold higher, 240 nM
- CNC(=O)c1cc(Oc2ccc3oc(Nc4ccccc4Cl)nc3c2)ccn1 — 10-fold higher, 260 nM
- CCN1CCN(c2ccc(Nc3nc4cc(Oc5ccnc(C(=O)NC)c5)ccc4o3)cc2)CC1 — 650-fold higher, 17000 nM
- CNC(=O)c1cc(Oc2ccc3oc(Nc4ccccc4F)nc3c2)ccn1 — 22-fold higher, 580 nM
- CCc1ccc(Nc2nc3cc(Oc4ccnc(C(=O)NC)c4)ccc3o2)cc1 — 5.2-fold lower, 5 nM
- CNC(=O)c1cc(Oc2ccc3sc(Nc4ccc(Cl)cc4)nc3c2)ccn1 — 1.7-fold lower, 15 nM
- CNC(=O)c1cc(Oc2ccc3oc(Nc4ccc(Oc5ccccc5)cc4)nc3c2)ccn1 — 26-fold higher, 680 nM
- CNC(=O)c1cc(Oc2ccc3sc(Nc4ccc(Br)cc4)nc3c2)ccn1 — 3.7-fold lower, 7 nM
- CCCCc1ccc(Nc2nc3cc(Oc4ccnc(C(=O)NC)c4)ccc3s2)cc1 — 2.5-fold higher, 65 nM
- CNC(=O)c1cc(Oc2ccc3oc(Nc4ccc(N(C)C)cc4)nc3c2)ccn1 — 5-fold higher, 130 nM
- CNC(=O)c1cc(Oc2ccc3sc(Nc4ccc(OC(F)(F)F)cc4)nc3c2)ccn1 — within 1.5-fold, 18 nM
- CC(C)(C)c1cccc(Nc2nc3cc(Oc4ccnc(C(N)=O)c4)ccc3s2)c1 — 13-fold lower, 2 nM
- CNC(=O)c1cc(Oc2ccc3oc(Nc4ccc(OC(F)(F)F)cc4)nc3c2)ccn1 — 2.2-fold lower, 12 nM
- CNC(=O)c1cc(Oc2ccc3oc(Nc4ccc(Br)cc4)nc3c2)ccn1 — within 1.5-fold, 25 nM
- CNC(=O)c1cc(Oc2ccc3sc(Nc4cccc(C(C)(C)C)c4)nc3c2)ccn1 — 6.5-fold lower, 4 nM
- CC(C)c1cccc(Nc2nc3cc(Oc4ccnc(C(=O)NCCN5CCOCC5)c4)ccc3o2)c1 — 7.7-fold higher, 200 nM
- CNC(=O)c1cc(Oc2ccc3sc(Nc4ccc(C(C)C)cc4)nc3c2)ccn1 — within 1.5-fold, 19 nM
- CNC(=O)c1cc(Oc2ccc3c(c2)nc(Nc2cccc(C(C)(C)C)c2)n3C)ccn1 — 4.6-fold higher, 120 nM
- CNC(=O)c1cc(Oc2ccc3oc(Nc4ccc(C(C)C)cc4)nc3c2)ccn1 — 4.3-fold lower, 6 nM
- CNC(=O)c1cc(Oc2ccc3oc(Nc4cccc(C(F)(F)F)c4)nc3c2)ccn1 — 4.2-fold higher, 110 nM
- CCCCc1ccc(Nc2nc3cc(Oc4ccnc(C(=O)NC)c4)ccc3o2)cc1 — 2.4-fold lower, 11 nM

Biological target: T1, Serine/threonine-protein kinase B-raf
Assay: Inhibition of BRAF V600E mutant-mediated ERK phosphorylation in human SKMEL-28 cells by immunoblotting method
Format: cell-based, MEL-28
Settings: not given

Point of comparison: `CNC(=O)c1cc(Oc2ccc3oc(Nc4ccc(Br)cc4)nc3c2)ccn1`, EC50 10 µM. Against it:
- CC(C)c1cccc(Nc2nc3cc(Oc4ccnc(C(N)=O)c4)ccc3o2)c1 — 2.7-fold lower, 3.7 µM
- CNC(=O)c1cc(Oc2ccc3oc(Nc4cccc(C(C)C)c4)nc3c2)ccn1 — 10-fold lower, 1 µM
- CNC(=O)c1cc(Oc2ccc3oc(Nc4cccc(C(C)(C)C)c4)nc3c2)ccn1 — 10-fold lower, 1 µM
- O=C(NCCN1CCOCC1)c1cc(Oc2ccc3sc(Nc4ccc(Br)cc4)nc3c2)ccn1 — higher, > 10 µM
- CCc1ccc(Nc2nc3cc(Oc4ccnc(C(=O)NC)c4)ccc3o2)cc1 — within 1.5-fold, 7 µM
- CNC(=O)c1cc(Oc2ccc3sc(Nc4ccc(Br)cc4)nc3c2)ccn1 — higher, > 10 µM
- CC(C)(C)c1cccc(Nc2nc3cc(Oc4ccnc(C(N)=O)c4)ccc3s2)c1 — 3.4-fold lower, 2.9 µM
- CNC(=O)c1cc(Oc2ccc3sc(Nc4cccc(C(C)(C)C)c4)nc3c2)ccn1 — 4.8-fold lower, 2.1 µM
- CNC(=O)c1cc(Oc2ccc3sc(Nc4ccc(C(C)C)cc4)nc3c2)ccn1 — 3.1-fold lower, 3.2 µM
- CNC(=O)c1cc(Oc2ccc3c(c2)nc(Nc2cccc(C(C)(C)C)c2)n3C)ccn1 — 36-fold lower, 0.28 µM

Biological target: Receptor-type tyrosine-protein kinase FLT3 (Homo sapiens) (UniProt P36888)
Assay: Inhibition of Flt3
Settings: not given

In the case of `CNC(=O)c1cc(Oc2ccc3oc(Nc4cccc(C(C)C)c4)nc3c2)ccn1`, the inhibition is reported as “Active”.
For `CNC(=O)c1cc(Oc2ccc3sc(Nc4cccc(C(C)(C)C)c4)nc3c2)ccn1`, the inhibition was “Active”.

Biological target: Vascular endothelial growth factor receptor 2 (Homo sapiens) (UniProt P35968)
Sequence (P35968 whole entry): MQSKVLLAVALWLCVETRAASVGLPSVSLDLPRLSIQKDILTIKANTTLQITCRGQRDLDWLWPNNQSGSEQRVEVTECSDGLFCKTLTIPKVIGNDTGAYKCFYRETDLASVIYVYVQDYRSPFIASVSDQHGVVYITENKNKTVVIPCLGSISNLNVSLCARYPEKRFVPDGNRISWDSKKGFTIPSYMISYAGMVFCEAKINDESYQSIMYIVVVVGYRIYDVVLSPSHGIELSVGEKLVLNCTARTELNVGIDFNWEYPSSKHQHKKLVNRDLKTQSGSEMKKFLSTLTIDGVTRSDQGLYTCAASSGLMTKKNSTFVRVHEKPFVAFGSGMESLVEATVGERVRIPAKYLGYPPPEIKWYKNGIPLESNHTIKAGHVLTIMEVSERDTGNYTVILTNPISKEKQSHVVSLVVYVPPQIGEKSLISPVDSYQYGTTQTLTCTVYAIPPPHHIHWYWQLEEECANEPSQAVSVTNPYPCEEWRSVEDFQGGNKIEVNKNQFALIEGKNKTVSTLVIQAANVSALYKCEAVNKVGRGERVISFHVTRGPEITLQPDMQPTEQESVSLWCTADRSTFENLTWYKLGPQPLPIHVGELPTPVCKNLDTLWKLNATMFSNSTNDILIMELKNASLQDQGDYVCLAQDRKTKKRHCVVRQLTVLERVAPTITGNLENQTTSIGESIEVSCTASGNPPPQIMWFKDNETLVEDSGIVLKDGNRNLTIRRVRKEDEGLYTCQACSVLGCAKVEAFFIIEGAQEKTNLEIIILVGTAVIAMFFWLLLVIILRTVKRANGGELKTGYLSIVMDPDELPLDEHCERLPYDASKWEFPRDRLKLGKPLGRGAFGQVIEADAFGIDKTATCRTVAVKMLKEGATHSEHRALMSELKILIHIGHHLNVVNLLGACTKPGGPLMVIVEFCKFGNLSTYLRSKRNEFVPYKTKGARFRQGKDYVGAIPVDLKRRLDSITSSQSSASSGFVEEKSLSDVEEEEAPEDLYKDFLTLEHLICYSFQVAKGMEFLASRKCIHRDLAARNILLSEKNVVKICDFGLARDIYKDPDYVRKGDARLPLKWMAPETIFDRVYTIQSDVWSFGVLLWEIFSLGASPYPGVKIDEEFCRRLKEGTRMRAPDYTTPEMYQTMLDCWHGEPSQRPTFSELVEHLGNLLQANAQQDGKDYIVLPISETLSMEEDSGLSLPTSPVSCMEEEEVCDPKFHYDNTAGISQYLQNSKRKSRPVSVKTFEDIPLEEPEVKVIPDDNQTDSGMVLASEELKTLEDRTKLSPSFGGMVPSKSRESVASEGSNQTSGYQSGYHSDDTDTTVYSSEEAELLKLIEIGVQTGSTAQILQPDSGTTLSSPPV
Assay: Inhibition of KDR
Settings: not given

For `CNC(=O)c1cc(Oc2ccc3oc(Nc4cccc(C(C)C)c4)nc3c2)ccn1`, the inhibition was “Active”.
In the case of `CNC(=O)c1cc(Oc2ccc3sc(Nc4cccc(C(C)(C)C)c4)nc3c2)ccn1`, the inhibition is reported as “Active”.

Biological target: Tyrosine-protein kinase ABL1 (Homo sapiens) (UniProt P00519)
Sequence (P00519 whole entry): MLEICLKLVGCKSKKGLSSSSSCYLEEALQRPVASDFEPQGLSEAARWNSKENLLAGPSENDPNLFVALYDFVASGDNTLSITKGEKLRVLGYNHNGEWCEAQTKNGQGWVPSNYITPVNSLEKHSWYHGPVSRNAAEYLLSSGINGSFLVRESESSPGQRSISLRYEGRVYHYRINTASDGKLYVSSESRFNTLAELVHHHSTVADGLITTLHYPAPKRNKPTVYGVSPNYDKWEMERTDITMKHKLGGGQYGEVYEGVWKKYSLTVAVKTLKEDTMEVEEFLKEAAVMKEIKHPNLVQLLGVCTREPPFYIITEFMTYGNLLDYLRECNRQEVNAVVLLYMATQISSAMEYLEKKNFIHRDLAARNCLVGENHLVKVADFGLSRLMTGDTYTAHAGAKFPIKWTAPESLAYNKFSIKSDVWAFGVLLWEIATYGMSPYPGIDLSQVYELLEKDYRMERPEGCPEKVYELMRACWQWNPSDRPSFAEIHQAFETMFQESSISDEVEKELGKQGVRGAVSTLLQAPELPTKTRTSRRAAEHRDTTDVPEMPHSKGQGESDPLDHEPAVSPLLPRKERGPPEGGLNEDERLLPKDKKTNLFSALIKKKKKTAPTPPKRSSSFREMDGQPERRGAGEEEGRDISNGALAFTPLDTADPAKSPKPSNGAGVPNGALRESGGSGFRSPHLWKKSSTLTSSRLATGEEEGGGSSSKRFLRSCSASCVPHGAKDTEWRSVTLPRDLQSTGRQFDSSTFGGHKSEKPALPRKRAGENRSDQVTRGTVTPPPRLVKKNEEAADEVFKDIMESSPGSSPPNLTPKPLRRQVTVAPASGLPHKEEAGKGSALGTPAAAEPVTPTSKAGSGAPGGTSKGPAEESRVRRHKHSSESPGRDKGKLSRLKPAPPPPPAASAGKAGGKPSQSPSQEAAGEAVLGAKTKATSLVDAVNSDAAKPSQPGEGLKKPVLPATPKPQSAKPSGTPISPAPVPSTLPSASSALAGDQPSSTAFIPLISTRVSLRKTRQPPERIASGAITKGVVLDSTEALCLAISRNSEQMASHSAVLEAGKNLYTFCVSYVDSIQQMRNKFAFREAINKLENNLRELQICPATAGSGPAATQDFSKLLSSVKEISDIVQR
Assay: Inhibition of cABL
Settings: not given

With `CNC(=O)c1cc(Oc2ccc3oc(Nc4cccc(C(C)C)c4)nc3c2)ccn1` the inhibition was “Active”.
For `CNC(=O)c1cc(Oc2ccc3sc(Nc4cccc(C(C)(C)C)c4)nc3c2)ccn1`, the inhibition was “Active”.

Biological target: Proto-oncogene tyrosine-protein kinase receptor Ret (Homo sapiens) (UniProt P07949)
Sequence (P07949 whole entry): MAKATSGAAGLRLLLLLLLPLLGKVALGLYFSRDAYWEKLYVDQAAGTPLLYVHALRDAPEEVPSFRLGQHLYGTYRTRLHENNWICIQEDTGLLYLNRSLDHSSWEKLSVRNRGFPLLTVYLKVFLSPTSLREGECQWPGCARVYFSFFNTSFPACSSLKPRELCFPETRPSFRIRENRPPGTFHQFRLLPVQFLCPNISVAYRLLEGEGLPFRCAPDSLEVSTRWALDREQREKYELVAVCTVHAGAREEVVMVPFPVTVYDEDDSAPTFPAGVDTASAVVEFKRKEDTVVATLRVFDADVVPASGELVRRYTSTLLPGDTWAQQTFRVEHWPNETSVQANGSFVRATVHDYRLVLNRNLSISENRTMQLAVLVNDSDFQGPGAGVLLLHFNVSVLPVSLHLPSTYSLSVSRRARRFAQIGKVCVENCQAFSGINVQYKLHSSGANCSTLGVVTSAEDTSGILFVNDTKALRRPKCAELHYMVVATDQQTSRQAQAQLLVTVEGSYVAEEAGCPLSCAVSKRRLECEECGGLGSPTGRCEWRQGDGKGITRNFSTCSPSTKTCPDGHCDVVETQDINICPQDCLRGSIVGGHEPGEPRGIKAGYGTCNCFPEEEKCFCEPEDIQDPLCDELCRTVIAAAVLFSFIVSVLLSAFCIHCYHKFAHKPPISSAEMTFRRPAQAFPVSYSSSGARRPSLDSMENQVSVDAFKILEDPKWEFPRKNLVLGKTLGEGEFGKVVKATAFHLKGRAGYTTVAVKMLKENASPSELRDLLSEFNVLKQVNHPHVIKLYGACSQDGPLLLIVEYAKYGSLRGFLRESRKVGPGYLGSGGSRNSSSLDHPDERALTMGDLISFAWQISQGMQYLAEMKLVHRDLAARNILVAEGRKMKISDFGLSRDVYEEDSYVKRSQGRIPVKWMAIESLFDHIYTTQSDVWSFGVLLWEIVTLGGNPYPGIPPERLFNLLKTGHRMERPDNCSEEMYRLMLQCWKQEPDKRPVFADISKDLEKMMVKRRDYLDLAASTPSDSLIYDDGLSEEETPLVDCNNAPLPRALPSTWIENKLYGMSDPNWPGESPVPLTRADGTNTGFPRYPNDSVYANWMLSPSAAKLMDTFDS
Assay: Inhibition of Ret
Settings: not given

For `CNC(=O)c1cc(Oc2ccc3oc(Nc4cccc(C(C)C)c4)nc3c2)ccn1`, the inhibition was “Active”.
For `CNC(=O)c1cc(Oc2ccc3sc(Nc4cccc(C(C)(C)C)c4)nc3c2)ccn1`, the inhibition was “Active”.

System: not listed separately
Assay: Clearance in mouse at 20 mg/kg, po administered as single dose
Format: ADME, organism-based
Set-up: dose 20 mg/kg, route oral
Settings: in vivo

Point of comparison: `CNC(=O)c1cc(Oc2ccc3sc(Nc4ccc(C)cc4)nc3c2)ccn1`, CL/F 14.1 mL/min/kg. Against it:
- CCc1ccc(Nc2nc3cc(Oc4ccnc(C(=O)NC)c4)ccc3o2)cc1 — 15-fold lower, 0.93 mL/min/kg

System: Mus musculus
Assay: Volume of distribution in mouse at 20 mg/kg, po administered as single dose
Format: ADME, organism-based
Set-up: dose 20 mg/kg, route oral
Settings: in vivo

Point of comparison: `CCc1ccc(Nc2nc3cc(Oc4ccnc(C(=O)NC)c4)ccc3o2)cc1`, Vd 82 mL/kg. Against it:
- CNC(=O)c1cc(Oc2ccc3sc(Nc4ccc(C)cc4)nc3c2)ccn1 — 13-fold higher, 1042 mL/kg

System: not listed separately
Assay: Half life in mouse at 20 mg/kg, po administered as single dose
Format: ADME, organism-based
Set-up: dose 20 mg/kg, route oral
Settings: in vivo

Point of comparison: `CNC(=O)c1cc(Oc2ccc3sc(Nc4ccc(C)cc4)nc3c2)ccn1`, half-life 80 min. Against it:
- CCc1ccc(Nc2nc3cc(Oc4ccnc(C(=O)NC)c4)ccc3o2)cc1 — 2.5-fold lower, 32 min

System: not listed separately
Assay: Oral bioavailability in mouse at 20 mg/kg administered as single dose
Format: ADME, organism-based
Settings: in vivo

Point of comparison: `CCc1ccc(Nc2nc3cc(Oc4ccnc(C(=O)NC)c4)ccc3o2)cc1`, bioavailability 33%. Against it:
- CNC(=O)c1cc(Oc2ccc3sc(Nc4ccc(C)cc4)nc3c2)ccn1 — higher, 90%
